Biological target: T1, human mGluR2 (Homo sapiens, UniProt Q14416)
T1 construct: If the GTPgammaS assay gave them: nothing
Assay: mGluR2 allosteric activator assays described herein (FLIPR calcium mobilization in HEK 293 mGluR2/CaR cells; [35S]-GTPγS binding with CHO membranes)
Assay type: cell-based
Settings: potentiator / positive allosteric modulator activity at mGluR2; the patent does not say which of the two described assays (FLIPR or GTPγS)
Source text: The pharmacological properties of the compounds of the invention can be analyzed using standard assays for functional activity. Examples of glutamate receptor assays are well known in the art as described in, for example, Aramori et al., 1992, Neuron, 8:757; Tanabe et al., 1992, Neuron, 8:169; Miller et al., 1995, J. Neuroscience, 15:6103; Balazs, et al., 1997, J. Neurochemistry, 1997, 69:151. The methodology described in these publications is incorporated herein by reference. Conveniently, the compounds of the invention can be studied by means of an assay that measures the mobilization of intracellular calcium, [Ca^2+]i in cells expressing mGluR2.
Fluorometric Imaging Plate Reader (FLIPR) analysis was used to detect allosteric activators of mGluR2 via calcium mobilization. […]
FLIPR experiments were done using a laser setting of 0.8 W and a 0.4 second CCD camera shutter speed. […] An addition of test compound (0.01 μM to 30 μM in duplicate) was made after 10 seconds of baseline fluorescent readings were recorded on FLIPR. Fluorescent signals were then recorded for an additional 75 seconds at which point a second addition of DCG-IV (0.2 μM) was made and fluorescent signals were recorded for an additional 65 seconds. Fluorescent signals were measured as the peak height of the response within the sample period. […]

T1 sequence (Q14416 19-819 limits assumed): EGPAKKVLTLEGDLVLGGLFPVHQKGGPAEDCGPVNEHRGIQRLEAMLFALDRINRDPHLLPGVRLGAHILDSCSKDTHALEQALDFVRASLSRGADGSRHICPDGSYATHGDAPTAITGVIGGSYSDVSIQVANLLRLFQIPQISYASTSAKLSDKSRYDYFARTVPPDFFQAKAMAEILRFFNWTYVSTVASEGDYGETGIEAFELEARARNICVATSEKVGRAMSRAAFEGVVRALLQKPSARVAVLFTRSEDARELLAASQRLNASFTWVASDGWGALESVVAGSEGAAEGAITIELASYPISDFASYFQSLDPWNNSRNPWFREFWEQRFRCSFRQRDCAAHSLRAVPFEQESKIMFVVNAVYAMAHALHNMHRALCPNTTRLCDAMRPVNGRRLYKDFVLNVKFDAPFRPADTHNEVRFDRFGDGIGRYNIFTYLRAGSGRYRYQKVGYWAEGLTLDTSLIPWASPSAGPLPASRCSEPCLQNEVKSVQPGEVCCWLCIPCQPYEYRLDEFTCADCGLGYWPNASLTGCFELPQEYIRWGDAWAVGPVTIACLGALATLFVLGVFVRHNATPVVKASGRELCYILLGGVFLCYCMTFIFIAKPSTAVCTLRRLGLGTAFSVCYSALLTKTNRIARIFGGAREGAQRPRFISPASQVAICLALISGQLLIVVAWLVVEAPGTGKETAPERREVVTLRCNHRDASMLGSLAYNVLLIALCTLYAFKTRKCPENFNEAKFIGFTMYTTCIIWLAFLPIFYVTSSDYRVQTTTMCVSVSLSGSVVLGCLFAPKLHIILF

## O=C1CCn2c(CN3CCC(c4ccc(F)cc4)CC3)nc3cc(F)cc1c32 [Example 28.1, 8-Fluoro-2-[4-(4-fluoro-phenyl)-piperidin-1-ylmethyl]-4,5,9a,9b-tetrahydroimidazo[4,5,1-ij]quinolin-6-one]
  EC50: 1110 nM

Source: patent US20080318999A1, “Tricyclic Benzimidazoles and Their Use as Metabotropic Glutamate Receptor Modulators” (priority 2005, published 2008)
